Test results: ChEMBL document CHEMBL4507276 (2021)

What was measured:
Conditions in all cases: Compound concentration 1000.0 nM
[1] = target: T1, Serine/threonine-protein kinase Nek9 (Homo sapiens) (UniProt Q8TD19)
T1 sequence (whole entry): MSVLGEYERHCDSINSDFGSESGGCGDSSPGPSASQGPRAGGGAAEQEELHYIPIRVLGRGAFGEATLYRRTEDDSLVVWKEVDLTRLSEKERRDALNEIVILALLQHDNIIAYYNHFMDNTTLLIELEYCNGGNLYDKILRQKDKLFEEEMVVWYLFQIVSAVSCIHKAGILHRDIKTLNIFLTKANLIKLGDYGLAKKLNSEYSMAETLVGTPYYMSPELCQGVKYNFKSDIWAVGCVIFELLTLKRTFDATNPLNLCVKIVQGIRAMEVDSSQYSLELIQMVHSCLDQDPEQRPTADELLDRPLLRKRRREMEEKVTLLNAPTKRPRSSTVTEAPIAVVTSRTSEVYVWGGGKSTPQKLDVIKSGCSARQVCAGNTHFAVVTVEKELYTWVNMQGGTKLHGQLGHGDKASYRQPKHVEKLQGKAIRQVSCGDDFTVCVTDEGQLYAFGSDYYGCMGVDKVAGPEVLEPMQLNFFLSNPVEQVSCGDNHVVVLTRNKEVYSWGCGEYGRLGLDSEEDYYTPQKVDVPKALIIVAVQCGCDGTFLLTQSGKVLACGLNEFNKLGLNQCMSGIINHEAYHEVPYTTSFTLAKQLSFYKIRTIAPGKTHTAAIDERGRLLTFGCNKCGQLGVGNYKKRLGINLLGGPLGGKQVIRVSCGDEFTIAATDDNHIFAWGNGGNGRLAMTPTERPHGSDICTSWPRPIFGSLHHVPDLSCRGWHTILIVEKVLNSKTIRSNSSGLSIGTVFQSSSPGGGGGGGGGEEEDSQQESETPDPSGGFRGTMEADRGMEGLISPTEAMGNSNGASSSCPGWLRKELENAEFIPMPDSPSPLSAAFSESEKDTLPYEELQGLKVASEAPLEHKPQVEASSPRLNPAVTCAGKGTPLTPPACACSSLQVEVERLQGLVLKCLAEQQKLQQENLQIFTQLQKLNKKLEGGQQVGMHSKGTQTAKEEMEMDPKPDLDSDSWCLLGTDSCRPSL

[2] = test system: ALK tyrosine kinase receptor (Homo sapiens), Q9UM73 [L1196M]
[3] = target: T2, Inhibitor of nuclear factor kappa-B kinase subunit alpha (Homo sapiens) (UniProt O15111)
T2 sequence (whole entry): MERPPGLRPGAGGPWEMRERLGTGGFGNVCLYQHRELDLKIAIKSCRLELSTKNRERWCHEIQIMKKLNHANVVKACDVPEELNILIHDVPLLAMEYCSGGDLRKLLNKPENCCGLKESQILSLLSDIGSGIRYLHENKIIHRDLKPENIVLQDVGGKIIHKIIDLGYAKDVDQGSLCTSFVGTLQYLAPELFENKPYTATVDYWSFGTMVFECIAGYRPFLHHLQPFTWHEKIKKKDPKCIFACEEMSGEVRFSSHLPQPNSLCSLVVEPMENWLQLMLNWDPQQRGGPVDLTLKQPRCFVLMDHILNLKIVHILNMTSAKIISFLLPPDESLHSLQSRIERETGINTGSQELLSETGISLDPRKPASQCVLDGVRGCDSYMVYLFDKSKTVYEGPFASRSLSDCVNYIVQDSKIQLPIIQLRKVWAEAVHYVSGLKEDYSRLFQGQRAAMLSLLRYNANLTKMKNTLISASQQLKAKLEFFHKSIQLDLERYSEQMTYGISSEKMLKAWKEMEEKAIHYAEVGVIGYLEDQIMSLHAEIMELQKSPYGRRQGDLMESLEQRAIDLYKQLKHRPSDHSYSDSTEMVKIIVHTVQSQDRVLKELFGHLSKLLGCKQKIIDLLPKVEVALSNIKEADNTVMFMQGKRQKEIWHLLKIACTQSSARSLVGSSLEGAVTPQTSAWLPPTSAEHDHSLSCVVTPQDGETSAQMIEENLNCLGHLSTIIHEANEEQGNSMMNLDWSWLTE

[4] = target: T3, Protein kinase C iota type (Homo sapiens) (UniProt P41743)
T3 sequence (whole entry): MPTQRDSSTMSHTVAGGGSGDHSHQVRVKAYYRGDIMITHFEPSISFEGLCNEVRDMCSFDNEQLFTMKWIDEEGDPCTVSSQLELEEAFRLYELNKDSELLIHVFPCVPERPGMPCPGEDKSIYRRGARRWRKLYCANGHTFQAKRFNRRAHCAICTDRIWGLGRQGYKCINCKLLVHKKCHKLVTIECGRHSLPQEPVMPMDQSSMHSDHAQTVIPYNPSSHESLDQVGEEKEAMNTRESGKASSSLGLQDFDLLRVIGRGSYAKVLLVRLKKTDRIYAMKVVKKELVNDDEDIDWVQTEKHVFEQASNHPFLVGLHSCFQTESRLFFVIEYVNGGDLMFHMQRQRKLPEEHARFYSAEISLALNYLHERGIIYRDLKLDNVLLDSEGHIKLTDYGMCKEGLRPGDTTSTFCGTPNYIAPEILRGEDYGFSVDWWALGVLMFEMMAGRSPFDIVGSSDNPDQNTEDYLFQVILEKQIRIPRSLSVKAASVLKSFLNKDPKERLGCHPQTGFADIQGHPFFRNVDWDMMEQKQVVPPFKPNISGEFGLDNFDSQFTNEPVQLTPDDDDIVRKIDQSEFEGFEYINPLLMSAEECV

[5] = target: MAP/microtubule affinity-regulating kinase 3 (Homo sapiens) (UniProt P27448)
[6] = target: Cyclin-dependent kinase 16 (Homo sapiens) (UniProt Q00536)
Chain of Cyclin-dependent kinase 16 (Homo sapiens) (Q00536 whole entry): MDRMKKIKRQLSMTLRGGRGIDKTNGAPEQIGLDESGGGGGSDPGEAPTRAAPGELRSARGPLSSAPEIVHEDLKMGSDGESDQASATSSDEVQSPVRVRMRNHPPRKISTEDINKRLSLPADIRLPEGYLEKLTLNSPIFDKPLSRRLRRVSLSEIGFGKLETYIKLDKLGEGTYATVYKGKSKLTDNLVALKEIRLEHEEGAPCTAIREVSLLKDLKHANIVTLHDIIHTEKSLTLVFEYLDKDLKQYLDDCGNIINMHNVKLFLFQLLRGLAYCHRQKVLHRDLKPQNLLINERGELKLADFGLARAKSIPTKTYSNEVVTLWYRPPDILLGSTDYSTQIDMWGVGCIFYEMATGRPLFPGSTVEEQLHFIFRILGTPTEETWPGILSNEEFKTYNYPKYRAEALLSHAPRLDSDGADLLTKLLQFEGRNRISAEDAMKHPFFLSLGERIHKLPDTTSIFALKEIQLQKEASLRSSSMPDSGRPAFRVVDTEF

Chain of ALK tyrosine kinase receptor (Homo sapiens), Q9UM73 [L1196M] (Q9UM73 whole entry L1196M, looked up): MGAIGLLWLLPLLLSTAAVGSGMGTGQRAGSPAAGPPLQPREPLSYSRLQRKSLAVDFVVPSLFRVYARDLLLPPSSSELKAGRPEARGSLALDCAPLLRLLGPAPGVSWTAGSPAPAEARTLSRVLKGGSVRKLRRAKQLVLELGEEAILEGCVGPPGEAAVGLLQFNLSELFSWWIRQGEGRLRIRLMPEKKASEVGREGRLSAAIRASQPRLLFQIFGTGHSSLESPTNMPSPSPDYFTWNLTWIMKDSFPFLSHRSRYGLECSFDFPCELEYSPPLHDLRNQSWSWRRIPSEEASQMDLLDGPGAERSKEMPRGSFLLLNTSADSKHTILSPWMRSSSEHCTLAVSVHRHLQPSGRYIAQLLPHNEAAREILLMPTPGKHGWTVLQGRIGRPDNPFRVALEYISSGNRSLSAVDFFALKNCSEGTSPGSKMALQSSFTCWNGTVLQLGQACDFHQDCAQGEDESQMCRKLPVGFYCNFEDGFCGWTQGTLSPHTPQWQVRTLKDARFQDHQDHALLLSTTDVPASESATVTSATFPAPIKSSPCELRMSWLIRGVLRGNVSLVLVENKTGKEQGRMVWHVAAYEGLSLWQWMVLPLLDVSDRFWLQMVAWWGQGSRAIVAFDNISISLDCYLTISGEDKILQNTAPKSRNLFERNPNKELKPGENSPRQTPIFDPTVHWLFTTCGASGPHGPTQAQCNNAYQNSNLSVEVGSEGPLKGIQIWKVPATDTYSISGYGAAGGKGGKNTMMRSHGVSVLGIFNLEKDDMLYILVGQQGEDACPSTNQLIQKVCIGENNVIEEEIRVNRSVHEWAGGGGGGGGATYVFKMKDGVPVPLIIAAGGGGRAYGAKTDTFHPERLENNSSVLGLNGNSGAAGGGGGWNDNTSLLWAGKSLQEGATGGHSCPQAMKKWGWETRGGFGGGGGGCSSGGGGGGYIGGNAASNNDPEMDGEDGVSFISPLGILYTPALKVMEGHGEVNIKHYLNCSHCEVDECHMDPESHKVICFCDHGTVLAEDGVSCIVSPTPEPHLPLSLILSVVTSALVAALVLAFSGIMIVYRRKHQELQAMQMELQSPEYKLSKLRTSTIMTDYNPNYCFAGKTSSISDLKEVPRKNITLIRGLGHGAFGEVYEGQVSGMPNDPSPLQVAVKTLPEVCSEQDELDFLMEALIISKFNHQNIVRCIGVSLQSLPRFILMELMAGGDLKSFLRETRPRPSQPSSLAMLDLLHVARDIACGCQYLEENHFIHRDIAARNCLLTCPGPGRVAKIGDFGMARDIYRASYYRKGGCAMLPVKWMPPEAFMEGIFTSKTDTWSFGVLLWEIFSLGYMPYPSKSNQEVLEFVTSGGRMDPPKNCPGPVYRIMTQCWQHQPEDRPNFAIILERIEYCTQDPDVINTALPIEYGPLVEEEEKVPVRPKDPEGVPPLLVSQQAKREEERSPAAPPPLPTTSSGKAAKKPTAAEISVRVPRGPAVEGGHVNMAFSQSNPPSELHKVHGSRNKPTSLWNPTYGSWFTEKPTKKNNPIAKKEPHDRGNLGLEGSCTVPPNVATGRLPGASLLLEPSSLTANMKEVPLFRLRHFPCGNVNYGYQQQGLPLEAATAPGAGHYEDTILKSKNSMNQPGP
Chain of MAP/microtubule affinity-regulating kinase 3 (Homo sapiens) (P27448 whole entry, looked up): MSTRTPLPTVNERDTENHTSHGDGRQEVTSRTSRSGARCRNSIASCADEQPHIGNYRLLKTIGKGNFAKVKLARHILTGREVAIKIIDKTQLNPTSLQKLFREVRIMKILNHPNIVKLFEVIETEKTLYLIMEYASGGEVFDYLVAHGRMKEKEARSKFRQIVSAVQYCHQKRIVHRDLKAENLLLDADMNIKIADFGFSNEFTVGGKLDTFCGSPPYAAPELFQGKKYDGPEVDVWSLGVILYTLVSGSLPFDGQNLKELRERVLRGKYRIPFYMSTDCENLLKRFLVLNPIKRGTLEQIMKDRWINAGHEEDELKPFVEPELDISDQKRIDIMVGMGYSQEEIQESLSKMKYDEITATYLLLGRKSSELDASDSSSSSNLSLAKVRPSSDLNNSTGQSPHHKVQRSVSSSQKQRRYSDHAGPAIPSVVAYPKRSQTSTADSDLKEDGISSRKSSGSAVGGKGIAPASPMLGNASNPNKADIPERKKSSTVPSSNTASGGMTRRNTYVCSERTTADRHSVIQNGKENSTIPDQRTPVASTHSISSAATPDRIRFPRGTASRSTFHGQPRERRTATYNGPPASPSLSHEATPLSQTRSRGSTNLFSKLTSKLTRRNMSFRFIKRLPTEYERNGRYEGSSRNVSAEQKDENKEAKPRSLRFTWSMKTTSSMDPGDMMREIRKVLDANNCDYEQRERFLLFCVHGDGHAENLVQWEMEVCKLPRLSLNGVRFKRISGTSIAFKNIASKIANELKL

CN(C)C(=O)Cn1cc(-c2nc(C3(c4ccc(-c5cnc(N)nc5)cc4)CC3)no2)cn1 [BI 0153]
residual activity [1]: 100% | residual activity [2]: 92% | residual activity [3]: 100% | residual activity [4]: 100% | residual activity [5]: 100% | residual activity [6]: 80%

CN(C)C(=O)Cn1cc(-c2nc([C@@](C)(c3ccc(-c4cnc(N)nc4)cc3)C3CC3)no2)cn1 [BI 665915]
residual activity [1]: 95% | residual activity [2]: 90% | residual activity [3]: 0% | residual activity [4]: 93% | residual activity [5]: 99% | residual activity [6]: 86%
